Assay results taken from US11643439B2, “Multi-target compound with anticoagulation and antiplatelet activity, preparation method therefor, and use thereof” (SHAANXI MICOT TECHNOLOGY LIMITED COMPANY, priority 2015, dated 2023).
Marks after values point to notes of the source that are not given here.

Key:
[1] = tested on: blood coagulation function; assay: APTT in rabbits, single intravenous administration; format: in vivo, rabbit
Method: (§1) 1. Grouping and administration: 48 Rabbits were randomly divided into 6 groups, 8 rabbits per group. 1) Sham operation group (NS): Intravenous injection of the same volume of physiological saline; 2) positive control bivalirudin group (6 mg/kg); 3) positive control enoxaparin group (200 U/kg); 4) Low dose group of polypeptide 2 (3.0 mg/kg); 5) Medium dose group of polypeptide 2 (6.0 mg/kg); 6) High dose group of polypeptide 2 (12.0 mg/kg). Polypeptide 2 was administered by single intravenous administration. According to the body weight in kilograms of the rabbits, the sample was dissolved in 2 mL of physiological saline for single bolus injection. The sham operation group was administered with the same volume of physiological saline.
3.2 Determination of blood coagulation function: Blood samples were taken and the blood function (PT, TT, APTT) was determined at 0 min before administration, at points of 5 min and 15 min after administration, using a platelet-aggregation coagulation factor analyzer. Blood samples were centrifuged at 3510 rpm for 8 min to obtain platelet poor plasma (PPP). Reagent reconstruction and preservation were performed according to the operation requirements of the kit. Immediately after each blood sample was placed into a test cup and then added with PT. TT and APTT reagents, the test was started. After the test was completed, results were recorded.

[2] = tested on: FeCl3-induced femoral artery thrombosis; assay: FeCl3-induced femoral artery thrombosis in rabbits, single intravenous administration; format: in vivo, rabbit
Method: as §1
2.1 Surgery preparation of rabbits: Rabbit were sent to the laboratory for accommodation for one day, and then screened at first. Blood samples were taken from arteries within ears, which were subjected to blood routine analysis and APTT examinations, and the rabbits with a normal blood hemogram and APTT between 16 and 28 seconds were selected for experiments. The rabbits to be tested were fasted with free access to water in the night before the experiment. The rabbits were anesthetized with intravenous injection of 3% sodium pentobarbital solution at 1 ml/kg, fixed in the supine position, and then, the common carotid artery at one side, external jugular vein, femoral artery at one side, femoral vein, and forelimb vein at one side were isolated. The forelimb vein was subjected to intubation for administration; the left femoral vein was subjected to intubation for blood collection to determine the platelet aggregation rate: the femoral artery was used for the establishment of an arterial thrombosis model; the common carotid artery and external jugular vein were used for the establishment of an arterial and venous bypass thrombosis model.
2.3 Arterial thrombosis (AT) model: A small piece of filter paper (1 cm×1.5 cm) absorbed with 50% FeCl3 solution was applied onto the right femoral artery while administration, below which a small piece of a plastic film (2.5 cm×2.0 cm) was placed to protect surrounding tissues. After 10 minutes, the filter paper was removed, and then, the blood vessels and local tissues were rinsed with warm physiological saline, and the covered blood vessels were cut off. The thrombus which attached to the blood vessel walls was peeled off to be weighed on a tin foil for its wet weight, and then kept overnight at room temperature and weighed for its dry weight.
The femoral arteries in the […] and both sides in the rabbits were isolated and stabilized for 10 min before the administration was started. An AT model was established by covering the femoral artery with 50% FeCl3 filter paper while administration, and the filter paper was removed after covering for 15 minutes. An AVST model was established and it was taken out after […]. Observation was continued for 120 min after administration until the experiment was completed.
3.4 Thrombus weight: After the experiment was completed, the segment of the blood vessels in which there had been thrombus formation was cut off, weighed for the wet weight, and then kept overnight at room temperature and weighed for the dry weight. The thrombosis inhibitory rate was calculated with a calculation equation as follows: […]

[3] = tested on: thrombin-induced pulmonary embolism; assay: Thrombin-induced pulmonary embolism in mice; format: in vivo, mouse; conditions: thrombin 1500 u/kg; for Mortality rate: within 15 min
Method: Mice were randomly divided into 7 groups with 10 mice per group, in which group 1 was physiological saline group, group 2 was model control group, group 3 was positive control group of enoxaparin 0.5 mg/kg, group 4 was positive control group of bivalirudin 8 mg/kg, group 5 was low dose group of polypeptide 2 at 2.5 mg/kg, group 6 was medium dose group of polypeptide 2 at 5.0 mg/kg, and group 7 was high dose group of polypeptide 2 at 10.0 mg/kg. Except that physiological saline group and model control group were subjected to tail intravenous injection of 200 μl physiological saline, the other groups were given according to the doses, respectively. After 2 min, the mice in physiological saline group were administered with 100 μl physiological saline through tail intravenous injection and the other groups were each administered with 100 μl thrombin based on 1500 u/kg (80% to 90% of the lethal dose) through tail intravenous injection. The mice were observed after the administration for their death within 15 min.
(1) Recording mortality rate: the death status of mice with acute pulmonary embolism mice within 15 min was recorded and the survival time was recorded, to calculate the mortality rate;
(2) Determining lung coefficient: immediately after death, the bronchial and adipose tissues were dissected away from the lung tissue, and the lung tissue was washed with distilled water, and weighed for the lung weight after soaking up the water on the surface of the lung with a filter paper. The lung was taken out and weighed, to calculate the lung coefficient. Lung coefficient=Lung weight/Body weight×100%;
The lung was immediately dissected and taken out and weighed to determine the lung coefficient.

whole blood coagulation = assay: ACT in rabbits, single intravenous administration; format: in vivo, rabbit
Method: as §1
3.3 Determination of ACT: At 0 min before administration and at points of administration for 5 min and 15 min, the whole blood was taken, to which kaolin was added, and placed in a water bath at 37° C. to record the whole blood coagulation time.

[4] = single iv 200 (U/kg), Administration for 5 min
[5] = single iv 200 (U/kg), Administration for 15 min
[6] = single iv 200 (U/kg), Before administration
[7] = single iv 6.0 mg/kg, Administration 5 min
[8] = single iv 6.0 mg/kg, Administration 15 min
[9] = single iv 6.0 mg/kg, Administration for 5 min
[10] = single iv 6.0 mg/kg, Administration for 15 min
[11] = single iv 6.0 mg/kg, Before administration
[12] = single iv 6.0 mg/kg, After administration 5 min
[13] = single iv 6.0 mg/kg, After administration 15 min
[14] = single iv 3.0 mg/kg, Administration for 5 min
[15] = single iv 3.0 mg/kg, Administration for 15 min
[16] = single iv 3.0 mg/kg, Before administration
[17] = single iv 12.0 mg/kg, Administration for 5 min
[18] = single iv 12.0 mg/kg, Administration for 15 min
[19] = single iv 12.0 mg/kg, Before administration

Enoxaparin
APTT fold of prolongation ([1]; single iv 200 (U/kg), Administration 5 min): 2.2 ± 0.5 | APTT fold of prolongation ([1]; single iv 200 (U/kg), Administration 15 min): 1.8 ± 0.3 | APTT [1, 4]: 48.7 ± 3.9 s | APTT [1, 5]: 40.9 ± 2.9 s | APTT [1, 6]: 22.5 ± 1.1 s | Thrombus dry weight ([2]; single iv 200 U (U/kg)): 1.5 ± 0.4 mg | Thrombus inhibitory rate ([2]; single iv 200 U (U/kg)): 48.26% | Mortality rate ([3]; tail iv 0.5 mg/kg): 10% | Lung coefficient ([3]; tail iv 250 IU/kg): 1.02 ± 0.33 g/100 g | ACT (whole blood coagulation; [4]): 915.0 ± 37.7 s | ACT (whole blood coagulation; [5]): 610.7 ± 25.7 s | ACT fold of prolongation (whole blood coagulation; single iv 200 (U/kg), After administration 5 min): 3.4 ± 1.1 | ACT fold of prolongation (whole blood coagulation; single iv 200 (U/kg), After administration 15 min): 2.2 ± 0.7 | ACT (whole blood coagulation; [6]): 285.0 ± 25.6 s

Bivalirudin: Bivalirudin for Injection, Xi'an Xintong Pharmaceutical Research Co., Ltd.; positive control thrombin inhibitor
APTT fold of prolongation [1, 7]: 2.4 ± 0.3 | APTT fold of prolongation [1, 8]: 1.4 ± 0.3 | APTT [1, 9]: 50.4 ± 3.6 s | APTT [1, 10]: 30.9 ± 2.7 s | APTT [1, 11]: 21.6 ± 1.0 s | Thrombus dry weight ([2]; single iv 6.0 mg/kg): 1.5 ± 0.9 mg | Thrombus inhibitory rate ([2]; single iv 6.0 mg/kg): 48.20% | Lung coefficient ([3]; tail iv 8.0 mg/kg): 0.99 ± 0.07 g/100 g | Number of platelets ([3]; tail iv 8.0 mg/kg): 411.89 ± 175.52 ×10^9 | Mortality rate ([3]; tail iv 8.0 mg/kg, 8 mg/kg): 10**^## % | Mortality rate ([3]; tail iv 8.0 mg/kg, listed as bivalirudin, 8 mg/kg): 10% | ACT (whole blood coagulation; [9]): 443.8 ± 35.3 s | ACT (whole blood coagulation; [10]): 375.0 ± 24.1*^ s | ACT fold of prolongation (whole blood coagulation; [12]): 1.5 ± 0.3 | ACT fold of prolongation (whole blood coagulation; [13]): 1.3 ± 0.4 | ACT (whole blood coagulation; [11]): 305.6 ± 24.0 s

D-Phe Pro Arg Pro Gly Gly Gly Gly Asn Gly Asp Phe Glu Glu Ile Pro Glu Glu Tyr Leu Glu Ala Ala Ala Lys Cys Har Gly Asp Trp Pro Cys [Polypeptide 2]
APTT fold of prolongation ([1]; single iv 3.0 mg/kg, Administration 5 min): 1.2 ± 0.2 | APTT fold of prolongation ([1]; single iv 3.0 mg/kg, Administration 15 min): 1.0 ± 0.1 | APTT [1, 14]: 24.4 ± 4.2*^¥ s | APTT [1, 15]: 20.0 ± 3.1 s | APTT [1, 16]: 20.6 ± 1.2 s | APTT fold of prolongation [1, 7]: 2.1 ± 0.6 | APTT fold of prolongation [1, 8]: 1.5 ± 0.4 | APTT [1, 9]: 50.5 ± 3.6*^& s | APTT [1, 10]: 34.9 ± 2.7*^& s | APTT [1, 11]: 24.1 ± 1.0 s | APTT fold of prolongation ([1]; single iv 12.0 mg/kg, Administration 5 min): 2.3 ± 0.6 | APTT fold of prolongation ([1]; single iv 12.0 mg/kg, Administration 15 min): 1.6 ± 0.5 | APTT [1, 17]: 54.4 ± 3.6*^& s | APTT [1, 18]: 37.0 ± 2.7*^& s | APTT [1, 19]: 23.3 ± 1.0 s | Thrombus dry weight ([2]; single iv 3.0 mg/kg): 1.4 ± 0.5 mg | Thrombus inhibitory rate ([2]; single iv 3.0 mg/kg): 52.99% | Thrombus dry weight ([2]; single iv 6.0 mg/kg): 1.2 ± 0.7 mg | Thrombus inhibitory rate ([2]; single iv 6.0 mg/kg): 56.90% | Thrombus dry weight ([2]; single iv 12.0 mg/kg): 1.1 ± 0.9 mg | Thrombus inhibitory rate ([2]; single iv 12.0 mg/kg): 60.82% | Lung coefficient ([3]; tail iv 2.5 mg/kg): 0.94 ± 0.16 g/100 g | Number of platelets ([3]; tail iv 2.5 mg/kg): 165.33 ± 20.2 ×10^9 | Mortality rate ([3]; tail iv 2.5 mg/kg, 2.5 mg/kg): 60 ^ % | Mortality rate ([3]; tail iv 2.5 mg/kg, listed as polypeptide 2, 2.5 mg/kg): 60% | Lung coefficient ([3]; tail iv 5.0 mg/kg): 1.08 ± 0.27 g/100 g | Number of platelets ([3]; tail iv 5.0 mg/kg): 207.83 ± 33.09 ×10^9 | Mortality rate ([3]; tail iv 5.0 mg/kg, 5 mg/kg): 30**^# % | Mortality rate ([3]; tail iv 5.0 mg/kg, listed as polypeptide 2, 5 mg/kg): 30% | Lung coefficient ([3]; tail iv 10.0 mg/kg): 0.83 ± 0.14 g/100 g | Number of platelets ([3]; tail iv 10.0 mg/kg): 529.57 ± 104.28 ×10^9 | Mortality rate ([3]; tail iv 10.0 mg/kg, 10 mg/kg): 10**^# % | Mortality rate ([3]; tail iv 10.0 mg/kg, listed as polypeptide 2, 10 mg/kg): 10% | ACT (whole blood coagulation; [14]): 352.5 ± 40.7^¥ s | ACT (whole blood coagulation; [15]): 337.5 ± 27.8*^¥ s | ACT fold of prolongation (whole blood coagulation; single iv 3.0 mg/kg, After administration 5 min): 1.0 ± 0.2 | ACT fold of prolongation (whole blood coagulation; single iv 3.0 mg/kg, After administration 15 min): 1.0 ± 0.1 | ACT (whole blood coagulation; [16]): 357.5 ± 27.7 s | ACT (whole blood coagulation; [9]): 356.3 ± 35.3^¥ s | ACT (whole blood coagulation; [10]): 324.4 ± 24.1*^¥ s | ACT fold of prolongation (whole blood coagulation; [12]): 1.7 ± 0.7 | ACT fold of prolongation (whole blood coagulation; [13]): 1.6 ± 0.9 | ACT (whole blood coagulation; [11]): 232.5 ± 24.0 s | ACT (whole blood coagulation; [17]): 505.6 ± 35.3*^¥&@ s | ACT (whole blood coagulation; [18]): 418.1 ± 24.1*^¥ s | ACT fold of prolongation (whole blood coagulation; single iv 12.0 mg/kg, After administration 5 min): 1.7 ± 0.6 | ACT fold of prolongation (whole blood coagulation; single iv 12.0 mg/kg, After administration 15 min): 1.4 ± 0.3 | ACT (whole blood coagulation; [19]): 315.0 ± 24.0 s
